Assay results published in US10662203B2, “Pyrido[2,3-b]indole compounds for the treatment and prophylaxis of bacterial infection” (Hoffmann-La Roche Inc., priority 2017, dated 2020).

Experiments:
Test in all cases: 50% growth inhibitory concentration (IC50) determination assay
Format in all cases: cell-based
Conditions in all cases: Iso-Sensitest broth, 0.098 = detection limit
S. aureus (ATCC29213) = test system: S. aureus (ATCC29213)
Protocol: (§1) Stock compounds in DMSO were serially two-fold diluted (range from 50 to 0.097 μM final concentration) in 384 wells microtiter plates and inoculated with 49 μL the bacterial suspension in Iso-Sensitest broth medium to have a final cell concentration of ˜5×10^5 CFU/mL in a final volume/well of 50 μL/well. Microtiter plates were incubated at 35±2° C. Bacterial cell growth was determined with the measurement of optical density at λ=600 nm each 20 minutes over a time course of 16 h. […] GP-6 (Example 4.131 disclosed in WO 2012/125746 A1) was used as the reference compound in Table 6-8. […] The data of IC50 over S. aureus (ATCC29213), K. pneumoniae (ATCC10031), and A. baumannii (ATCC17978) are illustrated in Table 6.

A. baumannii (ATCC17978) = test system: A. baumannii (ATCC17978)
Protocol: as §1

[1] = test system: K. pneumoniae (ATCC10031)
Protocol: as §1

[2] = Acinetobacter baumannii, ATCC17978, A. baumannii ATCC17978

Compound | IC50 (S. aureus (ATCC29213); Staphylococcus aureus) [µM] | IC50 (A. baumannii (ATCC17978); [2]) [µM] | IC50 ([1]; Klebsiella pneumoniae) [µM] | IC50 (S. aureus (ATCC29213)) [µM] | IC50 (A. baumannii (ATCC17978); A. baumannii ATCC17978) [µM] | IC50 [1] [µM]
CNc1cc(F)cc2c1[nH]c1ncc(-c3cnc4c(c3)c(=O)c(C(=O)O)cn4C)c(N3CCO[C@H](C)C3)c12 [Example 1.49] | < 0.098 | 0.112 | < 0.098 | – | – | –
CNc1cc(F)cc2c1[nH]c1ncc(-c3cnc4c(c3)c(=O)c(C(=O)O)cn4C)c(N3CCO[C@@H](C)C3)c12 [Example 1.50] | < 0.098 | 0.112 | < 0.098 | – | – | –
CNc1cc(F)cc2c1[nH]c1ncc(-c3cnc4c(c3)c(=O)c(C(=O)O)cn4C)c(N3CCCOCC3)c12 [Example 1.60] | < 0.098 | 0.248 | < 0.098 | – | – | –
CNc1cc(F)c(F)c2c1[nH]c1ncc(-c3cnc4c(c3)c(=O)c(C(=O)O)cn4C3CCNC3)c(N3CCCC3)c12 (stereo not drawn) [Example 1.65] | < 0.098 | 0.378 | < 0.098 | – | – | –
CNc1cc(F)cc2c1[nH]c1ncc(-c3cnc4c(c3)c(=O)c(C(=O)O)cn4C)c(N3CCSCC3)c12 [Example 1.66] | < 0.098 | 0.415 | < 0.098 | – | – | –
CNc1cc(F)cc2c1[nH]c1ncc(-c3cnc4c(c3)c(=O)c(C(=O)O)cn4CC(C)(C)N(C)C)c(N3CCOCC3)c12 [Example 1.69] | < 0.098 | 0.438 | < 0.098 | – | – | –
CNc1cc(F)cc2c1[nH]c1ncc(-c3cnc4c(c3)c(=O)c(C(=O)O)cn4C(C)CN(C)C)c(N3CCOCC3)c12 (stereo not drawn) [Example 1.70] | < 0.098 | 0.619 | < 0.098 | – | – | –
CNc1cc(F)c(F)c2c1[nH]c1ncc(-c3cnc4c(c3)c(=O)c(C(=O)O)cn4NC)c(N(C)C)c12 [Example 1.72] | < 0.098 | < 0.098 | < 0.098 | – | – | –
CCN(CC)CCn1cc(C(=O)O)c(=O)c2cc(-c3cnc4[nH]c5c(NC)cc(F)c(F)c5c4c3N3CCOCC3)cnc21 [Example 1.73] | < 0.098 | 0.238 | < 0.098 | – | – | –
CNc1c(F)c(F)cc2c1[nH]c1ncc(-c3cnc4c(c3)c(=O)c(C(=O)O)cn4C3CCNC3)c(N3CCCC3)c12 (stereo not drawn) [Example 1.76] | < 0.098 | 0.643 | < 0.098 | – | – | –
CNc1cc(F)c(F)c2c1[nH]c1ncc(-c3cnc4c(c3)c(=O)c(C(=O)O)cn4C)c(N3CCC[C@H]3CO)c12 [Example 1.77] | < 0.098 | 0.291 | 0.111 | – | – | –
CCC(Cn1cc(C(=O)O)c(=O)c2cc(-c3cnc4[nH]c5c(NC)cc(F)c(F)c5c4c3N3CCOCC3)cnc21)N(C)C (stereo not drawn) [Example 1.79] | < 0.098 | 0.173 | < 0.098 | – | – | –
CNc1cc(F)cc2c1[nH]c1ncc(-c3cnc4c(c3)c(=O)c(C(=O)O)cn4C3CCN(C)C3)c(N3CCOCC3)c12 (stereo not drawn) [Example 1.81] | < 0.098 | 0.164 | < 0.098 | – | – | –
CNc1cc(F)c(F)c2c1[nH]c1ncc(-c3cnc4c(c3)c(=O)c(C(=O)O)cn4Cc3cnco3)c(N(C)C)c12 [Example 1.87] | < 0.098 | 0.49 | 0.122 | – | – | –
CNc1cc(F)c(F)c2c1[nH]c1ncc(-c3cnc4c(c3)c(=O)c(C(=O)O)cn4C3CCNC3)c(N3CCCC3)c12 (stereo not drawn) [Example 1.89] | – | – | – | < 0.098 | 0.315 | < 0.098
CNc1cc(F)c(F)c2c1[nH]c1ncc(-c3cnc4c(c3)c(=O)c(C(=O)O)cn4NC3CCOCC3)c(N(C)C)c12 [Example 1.91] | < 0.098 | 0.237 | 0.165 | – | – | –
CNc1cc(F)c(F)c2c1[nH]c1ncc(-c3cnc4c(c3)c(=O)c(C(=O)O)cn4C3CC3)c(N(C)C)c12 [Example 1.95] | < 0.098 | 0.276 | 0.282 | – | – | –
CNc1cc(F)c(F)c2c1[nH]c1ncc(-c3cnc4c(c3)c(=O)c(C(=O)O)cn4C)c(N3CCSCC3)c12 [Example 1.97] | < 0.098 | 0.507 | 0.257 | – | – | –

Other lines, results leading:

IC50 (S. aureus (ATCC29213); Staphylococcus aureus) [µM] | IC50 (A. baumannii (ATCC17978); [2]) [µM] | IC50 ([1]; Klebsiella pneumoniae) [µM] | IC50 (S. aureus (ATCC29213)) [µM] | IC50 (A. baumannii (ATCC17978); A. baumannii ATCC17978) [µM] | IC50 [1] [µM] | Compound
< 0.098 | 0.849 | 0.17 | – | – | – | CCn1cc(C(=O)O)c(=O)c2cc(-c3cnc4[nH]c5c(NC)cc(F)c(F)c5c4c3N(C)CCOC)cnc21 [Example 1.06]
< 0.098 | 0.155 | < 0.098 | – | – | – | CNc1cc(F)c(F)c2c1[nH]c1ncc(-c3cnc4c(c3)c(=O)c(C(=O)O)cn4C)c(N3CCOCC3)c12 [Example 1.08]
< 0.098 | 0.818 | 0.104 | – | – | – | CNc1cc(F)c(F)c2c1[nH]c1ncc(-c3cnc4c(c3)c(=O)c(C(=O)O)cn4C)c(N3CCNC(C(F)(F)F)C3)c12 (stereo not drawn) [Example 1.09]
< 0.098 | 0.308 | < 0.098 | – | – | – | CNc1cc(F)cc2c1[nH]c1ncc(-c3cnc4c(c3)c(=O)c(C(=O)O)cn4C)c(N3CCC(F)(F)C3)c12 [Example 1.16]
< 0.098 | 0.515 | 0.101 | – | – | – | CNc1cc(F)cc2c1[nH]c1ncc(-c3cnc4c(c3)c(=O)c(C(=O)O)cn4C(C)(C)CN3CCCC3)c(N(C)C)c12 [Example 1.17]
< 0.098 | 0.326 | 0.132 | – | – | – | CCn1cc(C(=O)O)c(=O)c2cc(-c3cnc4[nH]c5c(NC)cc(F)c(F)c5c4c3N(C)C)cnc21 [Example 1.18]
< 0.098 | 0.283 | 0.145 | – | – | – | CCn1cc(C(=O)O)c(=O)c2cc(-c3cnc4[nH]c5c(NC)cc(F)cc5c4c3N(C)C)cnc21 [Example 1.19]
< 0.098 | 0.209 | 0.141 | – | – | – | CCn1cc(C(=O)O)c(=O)c2cc(-c3cnc4[nH]c5c(NC)c(F)c(F)cc5c4c3N(C)C)cnc21 [Example 1.20]
< 0.098 | 0.469 | 0.154 | – | – | – | CNc1cc(F)c(F)c2c1[nH]c1ncc(-c3cnc4c(c3)c(=O)c(C(=O)O)cn4C3CCOC3)c(N(C)C)c12 (stereo not drawn) [Example 1.21]
< 0.098 | 0.519 | 0.238 | – | – | – | CNc1cc(F)c(F)c2c1[nH]c1ncc(-c3cnc4c(c3)c(=O)c(C(=O)O)cn4CCOC)c(N(C)C)c12 [Example 1.24]
< 0.098 | 0.405 | < 0.098 | – | – | – | CNc1cc(F)c(F)c2c1[nH]c1ncc(-c3cnc4c(c3)c(=O)c(C(=O)O)cn4CCN3CCN(C)CC3)c(N(C)C)c12 [Example 1.29]
< 0.098 | 0.252 | < 0.098 | – | – | – | CNc1cc(F)c(F)c2c1[nH]c1ncc(-c3cnc4c(c3)c(=O)c(C(=O)O)cn4C)c(N(C)CCOC)c12 [Example 1.33]
< 0.098 | 0.147 | < 0.098 | – | – | – | CNc1cc(F)c(F)c2c1[nH]c1ncc(-c3cnc4c(c3)c(=O)c(C(=O)O)cn4C)c(N3CCO[C@@H](C)C3)c12 [Example 1.36]
< 0.098 | 0.363 | 0.19 | – | – | – | CNc1cc(F)c(F)c2c1[nH]c1ncc(-c3cnc4c(c3)c(=O)c(C(=O)O)cn4CC3CCCO3)c(N3CCOCC3)c12 (stereo not drawn) [Example 1.39]
< 0.098 | 0.364 | 0.264 | – | – | – | CNc1cc(F)c(F)c2c1[nH]c1ncc(-c3cnc4c(c3)c(=O)c(C(=O)O)cn4C)c(N3CCC(OC)CC3)c12 [Example 1.40]
< 0.098 | 0.277 | < 0.098 | – | – | – | CNc1cc(F)cc2c1[nH]c1ncc(-c3cnc4c(c3)c(=O)c(C(=O)O)cn4C)c(N3CCCC3)c12 [Example 1.46]
< 0.098 | 0.11 | < 0.098 | – | – | – | CNc1cc(F)cc2c1[nH]c1ncc(-c3cnc4c(c3)c(=O)c(C(=O)O)cn4C)c(N3CCOCC3)c12 [Example 1.48]
